We go through three molecules from patent EP1588705A1, “Use of coumarin derivatives” (INTE:LIGAND Software-Entwicklungs und Consulting GmbH, priority 2004, dated 2005).

In experiment [1] the target is T1, acetylcholinesterase (Electrophorus electricus, UniProt O42275). As to the kind of experiment: bioautographic TLC test for AChE inhibitory activity (Ellman's method). The format is biochemical. Details: purchased Sigma-Aldrich Chemie GmbH, Steinheim, Germany. The following applies: spots of methanolic extract of S. carniolica rhizomes, Rf 0.6 (SCT) and 0.4 (SCN); false positives excluded. As for the experimental part:
The AChE inhibitory activity of the methanolic crude extract was qualitatively determined in a TLC assay using Ellman's method (Ellman, et al, 1961). Additionally a test to exclude false positive results was conducted described by Rhee et al, 2003. The used silica gel TLC plates 60F254 (0.2 mm thickness) were purchased from Merck (Darmstadt, Germany). […] Enzyme inhibitory activities were detected by spraying the substrate, dye and enzyme described by Rhee and coauthors (Rhee et al, 2001).
(§1) In both test systems, the enzyme (acetylcholinesterase, Sigma-Aldrich Chemie GmbH, Steinheim, Germany) hydrolyzes the substrate acetylthiocholine (acetylthiocholiniodid, Sigma-Aldrich Chemie GmbH, Steinheim, Germany) to produce thiocholine. This reacts with Ellman's reagent (5,5'-dithiobis-(2-nitrobenzoic acid), Sigma-Aldrich Chemie GmbH, Steinheim, Germany) resulting in 5-thio-2-nitrobenzoate and the yellow colored 2-nitrobenzoate-5-mercaptothiocholine. This latter was visually detected in the TLC test.

Experiment [2] addresses T1, acetylcholinesterase. The experiment in a line: biochemical.
From the text: as §1
The self absorbance of all ingredients of the assay was corrected by subtracting the absorbance at time zero from the subsequent absorbance values. […] For all three substances the concentration dependence of their AChE inhibitory activity was determined. Percentage of the enzyme inhibition was calculated by comparing the rates for the sample to the blank (containing 1% DMSO) and analyzed with Student's t-test.

In experiment [3] the test system is extracellular concentration of ACh in the nucleus accumbens. The experiment in a line: in vivo extracellular ACh concentration, push-pull technique, i.c.v. injection. The following applies: 2 µmol i.c.v.; for extracellular concentration of ACh (relative value, means ± SEM): mean before drug = 1.0. Further details: species or system Sprague-Dawley rats. An excerpt: Surgery and push-pull technique: Sprague-Dawley rats (250-350 g) were anaesthetized with urethane 1,2 g/kg, i.p. The head was fixed in a stereotaxic frame and a push-pull cannula (outer tubing: o.d. 0.75 mm, i.d. 0.41 mm; inner tubing: o.d. 0.26 mm, i.d. 0.13 mm) was mounted on a microdrive. This was stereotaxically inserted through a hole in the skull into the nucleus accumbens (coordinates, mm from bregma: AP, +1.2; L, +2.5; V, -7.8; Paxinos & Watson, 1998). A second hole was drilled into the skull for the i.c.v. application of drugs (coordinates, mm from bregma: AP, -2,8; L, +1,5) The nucleus accumbens was superfused at 20µL/min with artificial cerebrospinal fluid (aCSF), pH 7.2. The CSF consisted of: NaCl,140; KCI, 3; CaCl2, 1.2; MgCl2 1; Na2HPO4, 1; NaH2PO4, 0.3; glucose 3.0 (mmol I^-1), neostigmine 1.0 (µmol/l^-1). After 1 h of the cannula insertion the samples were collected into tubes kept at -20° C in time periods of 10 min and then stored at -80° C until acetylcholine (Ach) was determined.
Using a motorized microsyringe connected to a stereotaxic microdrive, the tip was introduced with an angle of 60° through the drug application-hole into the ipsilateral ventricle (coordinates mm from bregma: AP, -0,9; L, +1,5; V, -3,8) via a cannula (o.d., 0,65; i.d., 0,38). The drug solutions were injected at 2µL/min. The control rats were injected with the vehicle (DMSO: EtOH 1:1).
Histology: At the end of the experiment the rat was killed with an overdose of urethane, the brain was removed and stored in buffered formaldehyde solution (7%). Serial coronal sections were cut at 50 µm intervals. Localisation of the push-pull cannula and i.c.v. microinjection was verified. Experiments with unsatisfactory localisation were discarded.
Determination of acetylcholine: (Ach): ACh content in the samples was determined by HPLC with a cation-exchanging analytical column and a post-column reactor followed by electrochemical detection (Damsma et al, 1997; Prast et al; 1998). The system consisted of a HPLC-pump (JASCO PU-1580, Jasco Corporation, Tokyo, Japan), a pulse dampener and an autosampler (AS-4000, Hitachi Ltd., Tokyo, Japan) with a 100-µL sample loop. […] The peroxide was electrochemically detected by a UniJet platin electrode (3mm) at +500 mV with an amperometric detector (BAS LC-4, Bioanalytical Systems, West Lafayette, IN, USA). […] ACh was quantified with external standards that were injected at the beginning and the end of the analysis.
Statistical significance of drug effects on the extracellular ACh concentration was calculated by Friedman's analysis of variance, followed by Wilcoxon's signed rank test for paired data (a p<0.08, * p<0.05, ** p<0,001) using the mean concentration rate before the administration of drugs as controls. […]

For experiment [4], the system named is mice. The experiment in a line: T-maze continuous alternation. It is filed as in vivo. As for the experimental part:
(§2) […] female, 3-month mice, weighing 20 - 27 g, were used in the present study. The animals were housed in groups of six to ten in cages (40 (L) x 25 (W) x 15 (H) cm) placed in a room at a constant temperature (22±1 °C), 12-light/ 12-dark cycle (07:00-19:00 h), with food and water ad libitum. Experiments were conducted between 09:00 and 16:00h.
(§3) Mice were anaesthetized with Pentobarbital sodium (60 mg/kg, i.p.) and placed in a stereotaxic frame. A guide cannula (gauge 25, o.d. 0.52 mm, i.d, 0.26 mm and 7 mm long) was stereotaxically implanted through a hole on the skull into the brain area 0.5 mm higher than the third cerebral ventricle (-0.1 mm posterior, 0.8 mm lateral to bregma, -2.2 mm ventral to the dura) (Franklin and Paxinos, 1997). Guide cannula was secured to the skull using two small screws and dental cement. The microinjector (Hamilton gauge 32, o.d. 0.24 mm and i.d. 0.11 mm, 7.5 mm long) protruded 0.5 mm from the tip of the guide cannula to reach the cerebral ventricle. Mice recovered for 5 days before any experimentation was done.
Scopolamine hydrobromide (Sigma, St. Louis, MO, U.S.A.) was dissolved in saline. SCT (Sigma-Aldrich Chemie GmbH, Steinheim, Germany) was dissolved in vehicle solution (DMSO:sterile water, 3:7). The animals were randomly divided into experimental groups and administered a cerebral ventricle injection of saline, scopolamine, SCT or scopolamine and SCT in a volume of 1 or 2 µl during 1 min. The injector was left in place an extra 1 min for drug diffusion after injection. These substances and vehicle were injected 15 min prior to the test.
Animals were randomly divided into […] experimental groups (6 mice per group) as follows: vehicle, scopolamine hybrobromide 20 µg (50 nmol) in 1µl ICV, SCT 2 µg (10 nmol) in 2µl ICV and scopolamine hybrobromide 20 µg plus SCT 2 µg ICV. All substances were injected 15 min before the test (T-maze and open field) or before the training trial T1 (object recognition test) through the 7.5 mm long injector connected with i.d. 0.28 mm polyethylene tubing to 5 µl Hamilton syringe. […]

The test system of experiment [5] is mice. The experiment in a line: object recognition task. The format is in vivo. As for the experimental part:
as §2, §3
Scopolamine hydrobromide (Sigma, St. Louis, MO, U.S.A.) was dissolved in saline. […]
Exploration was defined as follows: directing the nose toward the object at a distance of less than 0.5 cm and/or touching the object with the nose. […] The times spent by mice in exploring each object during T1 and T2 were recorded manually by using a stopwatch. […]

The subject of experiment [6] is mice. The experiment in a line: open field locomotor behaviour. The format is in vivo. The note with it: 2 µg ICV, 30 min. The protocol:
as §2
as §3, with “done. […]” for “done.”
The open field consisted of a transparent plastic box with white floor (41 x 41 x 41 cm) equipped with an automated activity monitoring system (True Scan, Coulbourn Instruments, Allentown, USA). […] The time spent in box and the overall distance travelled by the mice were monitored for 30 min. […]

The structures appear in SMILES notation. Counter-ions that a name gives are not always drawn. Some results are limits rather than exact numbers.

T1 sequence (O42275 24-633): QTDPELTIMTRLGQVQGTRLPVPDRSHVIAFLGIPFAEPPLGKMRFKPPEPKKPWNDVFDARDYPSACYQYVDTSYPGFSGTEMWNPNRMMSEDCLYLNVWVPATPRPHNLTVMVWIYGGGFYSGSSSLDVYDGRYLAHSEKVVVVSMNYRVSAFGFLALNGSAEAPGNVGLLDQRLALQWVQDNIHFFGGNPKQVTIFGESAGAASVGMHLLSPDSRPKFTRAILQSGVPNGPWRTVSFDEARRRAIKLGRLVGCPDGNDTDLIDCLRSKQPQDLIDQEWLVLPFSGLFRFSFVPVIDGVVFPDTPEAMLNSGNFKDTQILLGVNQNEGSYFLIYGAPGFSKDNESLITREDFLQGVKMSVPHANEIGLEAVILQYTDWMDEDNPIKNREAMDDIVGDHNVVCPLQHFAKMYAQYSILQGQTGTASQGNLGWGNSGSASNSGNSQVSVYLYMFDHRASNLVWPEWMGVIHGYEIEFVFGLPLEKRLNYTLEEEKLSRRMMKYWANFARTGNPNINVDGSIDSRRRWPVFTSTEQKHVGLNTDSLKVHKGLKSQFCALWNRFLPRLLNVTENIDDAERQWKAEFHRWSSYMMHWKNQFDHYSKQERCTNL

Turning to `COc1cc2ccc(=O)oc2cc1O[C@@H]1O[C@H](CO)[C@@H](O)[C@H](O)[C@H]1O` [SCN, scopolin], the “AChE inhibitory activity of fluorescent TLC spot” value on acetylcholinesterase [1] was “positive”. Also, at acetylcholinesterase [2] (1000, 500 and 250 µM), the “inhibition of AChE, statistical significance” value is reported as “significant”. For the same molecule, on acetylcholinesterase [2] (read-out: AChE inhibitory activity), the inhibition at 1000 µM stood at 30.1%. Further, the “time until inhibitory activities reach their maximum extent” value on acetylcholinesterase [2] (three highest concentrations) is recorded as at most 15 min. For the same molecule, the “change of inhibitory activity towards endpoint of measurement at 90 min” value at acetylcholinesterase [2] (three highest concentrations, after maximum in first 15 min) is given as “slight decrease”. Moreover, in experiment [3] (following the initial peak), the “ACh concentration after decline, of basal value” is listed as “about 200%”. Further, in experiment [3] (rat nucleus accumbens), the “initial peak concentration of ACh, of basal value” is given as “about 400%” and the “extracellular concentration of ACh (relative value, means ± SEM)” value is on record as 3.18 ± 0.78.

As to `CN1[C@@H]2C[C@@H](OC(=O)[C@H](CO)c3ccccc3)C[C@H]1[C@@H]1O[C@@H]12` [Scopolamine, Scopolamine hydrobromide, reference compound], the “effect on alternation rate” value with mice [4] (20 µg ICV) is reported as “pronounced decrease”. In addition, the “effect on learning in object recognition (discrimination novel vs familiar object in T2)” value with mice [5] (20 µg ICV, mice) is “drastic impairment of learning”.

For `COc1cc2ccc(=O)oc2cc1O` [SCT, scopoletin], on acetylcholinesterase [1], the “AChE inhibitory activity of fluorescent TLC spot” value is reported as “positive”. In addition, the “change of inhibitory activity up to 90 min” value on acetylcholinesterase [2] (higher concentrations (250, 500, 1000 µM)) is recorded as “slight, almost insignificant increase”. The “duration of inhibitory activity” value on acetylcholinesterase [2] (lower concentrations (62.5, 125 µM)) is listed as “at least 90 min”. On acetylcholinesterase [2] (lower concentrations (62.5, 125 µM), after adding enzyme to substrate), the “time until level of inhibitory activity is reached” value is given as at most 15 min. In addition, in experiment [3] (rat nucleus accumbens), the “extracellular concentration of ACh (relative value, means ± SEM)” value is 1,74 ± 0,24. Further, the alternation rate with mice [4] (2 µg ICV alone) is recorded as 63 ± 5%. The “effect on scopolamine-induced decrease in alternation rate” value with mice [4] (SCT 2 µg ICV plus scopolamine 20 µg ICV) was “abolished”. In addition, the “move distance, reduction compared to vehicle-treated controls” value with mice [6] is recorded as “about 20%”. Moreover, the “move time in the open field” value with mice [6] (vs vehicle-treated controls) is reported as “only slightly decreased”. The “discrimination index, effect on scopolamine-induced impairment of object recognition” value in the experiment on mice [5] (SCT 2 µg ICV plus scopolamine 20 µg ICV, 15 min before T1, mice) is reported as “significantly increased”.
